From patent US9623065B2, “Kind of polygonum capitatum extract, its application and a preparation containing the polygonum capitatum extract” (Zhejiang Sanzheng Biotechnology Co., Ltd., priority 2013, dated 2017)

Assays:
[1] = test system: 3T3-L1 adipocyte IR model; experiment: Influence of glucose utilization on the 3T3-L1 adipocyte insulin resistance (IR) model; type: cell-based, mouse
Protocol: 3T3-L1 mouse embryonic fibroblast cells, are derived from the Institute of Life Science of Chinese Academy of Sciences. Plant the 3T3-L1 preadipocytes into the 25 cm2 cell culture plate, add 6 ml normal culture medium, keep it at culture conditions of 37° C. and 5% CO2, change liquid in the next day. Pass or store it in freezing conditions after the 80% cell fused.
Inoculate the 3T3-L1 preadipocytes at the density of 5×10^3 in a 24-hole culture plate, wait until the cells grow to contact inhibition, replace the cell culture medium with differentiation liquid A (0.5 mmol/L IBMX, 0.1 umol/L DEX, 10 mg/L INS) and culture them for 48 h, then replace with the induction differentiation liquid (10 mg/L) to continuously culture for 48 h B, change the normal culture medium to continue culturing, and change the liquid once every 2 days, 90% of the above induced differentiation cells will have a mature phenotype after 6-8 days.
After counting the 3T3-L1 cells in logarithmic growth phase, inoculate them at the density of 5*10^3 each hole onto 24-hole culture plate, then put the culture plate into the CO2 incubator, under the conditions of a temperature of 37° C., 5% CO2 and saturated humidity, culture them to growth inhibition, induction differentiation to mature adipocytes. Add the following processing factors: • The control group shall be continued with their normal culture medium (DMEM high glucose culture liquid containing 10% FBS) • The model group shall be given 1 umol DEX normal culture medium; • Other cells shall be used in each drug group experiment
After counting the 3T3-L1 cell in logarithmic growth phase, inoculate each hole with density of 5×10^3 cells in 24-hole culture plate. According to the IR models preparation method of 2.3, divide the mature 3T3-L1 adipocytes into a normal culture group and model group, the model group can also be divided into a model control group and each drug group. The model group shall be given 1 umol DEX to react for 48 h. After the models are built, administer the drug as per the experimental groups and the concentration of drug, in 3 parallel plates. In 24 h, 48 h the cell morphologies shall be observed and take the supernatant to be tested on the semi automatic biochemical instrument, determine the glucose (GLU) content in the culture solution according to the descriptions of the kit.

[2] = test system: alloxan hyperglycemia model mice; experiment: Blood glucose of alloxan hyperglycemia model mice, comparison of extraction methods (Test Case 4); type: in vivo, KM mice; details: dose 0.5 mg, fasting
Protocol: Take 460 KM mice, with a weight of (20±2) g, half male and half female, let them to adapt to the environment for 7 days. Randomly select 6 male mice and 6 female mice as the blank control group, keep them fasted but water is supplied to them for 18 hours, use the physiological saline to prepare the 1.1% alloxan, and store it in an ice water bath. Carry out the intraperitoneal injection according to the ratio of 110 mg/kg, the control group is injected with the isodose physiological saline, let them eat after 1 h recovery. Use the same modeling method in the second day. 3 days later (72 h, normal diet), then fasting 12 hours, and then cut their tails to take a few drops of blood, and then fasting blood glucose is measured with glucose oxidase method, the mice with the blood glucose value greater than 11.1 mmol/L are the mice that successfully modeled.
Among the 460 KM mice, 12 of them belong to the blank control group, the remaining mice are used to modeling. After the modeling the mice with the blood glucose values measured greater than 11.1 mmol/L. In the design process each experimental group has 12 mice.
Take the model mice, randomly divide then into 16 groups, namely the water extraction (high, medium and low) dose group, the alcohol extraction (high, medium and low) dose group, the water and alcohol extraction (high, medium and low) dose group, the modeling group, positive group and blank control group (normal mice), please refer to Table 1.
Use surgical scissors to cut 2-3 mm of a mouse tail, press the tail to take a few drops of blood and place in the EP tube, first add 12 μL 15 g/L bipotassium EDTA solution, high speed centrifuge it (10000 r/min) for 5 min. Wait till the blood is stratified, take the upper layer serum 10 μL, plus 30 μL physiological saline, shake it evenly; and take 10 μL the dilute serum and put into a EP tube, add 1 mL glucose (Glu) oxidase, shake it evenly, keep at 37° C. for 15 min, the sample (U) is to be measured. Then take the physiological saline and calibrator (c) 10 μL respectively, add 1 mL glucose oxidase, shake evenly, keep at 37° C. for 15 min, determine the absorbance (A) with 505 nm wavelength after adjusting the blank tube to zero. […]
(§1) This experiment adopts the GOD-POD method for determination of serum glucose concentration, the principle of this method is POD in serum glucose is oxidized into D-gluconic acid in the presence of GOD, and generate H2O2; the latter and 4-amino antipyrine and phenol form red benzophenone imine under the effect of peroxidase (POD) benzophenone imine, the depth of the color of the ketone compounds is directly proportional to the content of glucose. Determine the absorbance values of the standard tube and the sample tube respectively, and then calculate the content of glucose.

[3] = test system: alloxan hyperglycemia model mice; experiment: Efficacy test of tablet, oral liquid, capsule, granules in alloxan hyperglycemia model mice (Test Cases 5-8); type: in vivo, KM mice; details: dose 0.5 mg
Protocol: Take 80 KM mice, with a body weight of (20+2) g, half male and half female, and let them to adapt to the environment for 7 days. Randomly select 6 male mice and female mice as the blank control group, fasted and supplied with water for 18 h. Prepare 1.1% alloxan with physiological saline, and keep it in ice water bath. Carry out intraperitoneal injection according to a dose of 110 mg/kg, the mice of the control group are to be injected with physiological saline, and then fast them 12 hours, use the same modeling method in the second day. 3 days later (72 h, restore to normal diet), then fast 12 h, and then cut the tail to take a few drops of blood. The fasting blood glucose was measured with glucose oxidase method. The mice that have a blood glucose value greater than 11.1 mmol/L are mice that have been successfully modeled.
Among the 80 KM mice, 12 are as the blank control group, the remaining mice are used to modeling. After modeling, find the mice with the blood glucose values measured more than 11.1 mmol/L. In the experiment design process each group is set with 12 mice, the number of female mice are larger in the experimental results, so the number of female mice designed a dose is 6-8 only (8 with only statistical significance), the tails of some of the male model mice may be damaged, which is not conducive to the blood sampling in the next step, therefore it is not designed in this experimental group.
Use surgical scissors to cut 2-3 mm of a mouse tail, press the tail to take a few drops of blood and place in the EP tube, first add 12 μL 15 g/L bi-potassium EDTA solution, high speed centrifuge it (10000 r/min) for 5 min. Wait till the blood is stratified, take the upper layer serum 10 μL, plus 30 μL physiological saline, shake it evenly; and take 10 μL the dilute serum and put into a EP tube, add 1 mL glucose (Glu) oxidase, shake evenly, keep at 37° C. for 15 min, the sample (U) is to be measured. Then take the physiological saline and calibrator (c) 10 μL respectively, add 1 mL glucose oxidase, shake it evenly, keep at 37° C. for 15 min, determine the absorbance (A) with 505 nm wavelength after adjusting the blank tube to zero. Sample Glu (mmol/L)=Au/Ac*Cc
Determine the fasting blood glucose values corresponding to the administration of 7 d, 14 d, 21 d and 28 d after the success of modeling (fasted but water is supplied for 12 h).
as §1

Structure (SMILES): CN(CCOc1ccc(CC2SC(=O)NC2=O)cc1)c1ccccn1 (stereo not shown) [ROG]
- Average 24 h GLU content ([1]; 3.125 ug/ml, first series): 22.24 mmol/L
- Average 48 h GLU content ([1]; 3.125 ug/ml, first series): 20.46 mmol/L
- Average 24 h GLU content ([1]; 12.5 ug/ml, first series): 22.04 mmol/L
- Average 48 h GLU content ([1]; 12.5 ug/ml, first series): 21.67 mmol/L
- Average 24 h GLU content ([1]; 50 ug/ml, culture supernatant, first series (model control 23.08)): 21.84 mmol/L
- Average 48 h GLU content ([1]; 50 ug/ml, culture supernatant, first series (model control 22.18)): 20.53 mmol/L
- Average 24 h GLU content ([1]; 100 ug/ml, second series (model control 27.72)): 25.38 mmol/L
- Average 48 h GLU content ([1]; 100 ug/ml, second series (model control 26.27)): 24.64 mmol/L

Structure (SMILES): C[C@H]1O[C@H](O[C@H]2[C@H](O)[C@@H](O)[C@@H](O[C@H]3[C@H](O)[C@@H](O)C(O)O[C@@H]3CO)O[C@@H]2CO)[C@H](O)[C@@H](O)[C@@H]1N[C@H]1C=C(CO)[C@@H](O)[C@H](O)[C@H]1O (stereo partly shown) [Acarbose]
- Blood glucose level 7 d ([2]; 7 d): 19.23 ± 7.54 mmol/L
- Blood glucose level 14 d ([2]; 14 d): 18.00 ± 6.99 mmol/L
- Blood glucose level 21 d ([2]; 21 d): 19.99 ± 6.69 mmol/L
- Blood glucose level 28 d ([2]; 28 d): 22.81 ± 7.72 mmol/L
- Blood glucose level 7 d ([3]; Table 8): 19.23 ± 7.54 mmol/L
- Blood glucose level 14 d ([3]; Table 8): 18.00 ± 6.99 mmol/L
- Blood glucose level 21 d ([3]; Table 8): 19.99 ± 6.69 mmol/L
- Blood glucose level 28 d ([3]; Table 8): 22.81 ± 7.72 mmol/L
- Blood glucose level 7 d ([3]; Table 9): 19.23 ± 7.54 mmol/L
- Blood glucose level 14 d ([3]; Table 9): 18.00 ± 6.99 mmol/L
- Blood glucose level 21 d ([3]; Table 9): 19.99 ± 6.69 mmol/L
- Blood glucose level 28 d ([3]; Table 9): 22.81 ± 7.72 mmol/L
- Blood glucose level 7 d ([3]; Table 10, in mmol/L): 19.23 ± 7.54
- Blood glucose level 14 d ([3]; Table 10, in mmol/L): 18.00 ± 6.99
- Blood glucose level 21 d ([3]; Table 10, in mmol/L): 19.99 ± 6.69
- Blood glucose level 28 d ([3]; Table 10, in mmol/L): 22.81 ± 7.72
- Blood glucose level 7 d ([3]; Table 11, in mmol/L): 19.23 ± 7.54
- Blood glucose level 14 d ([3]; Table 11, in mmol/L): 18.00 ± 6.99
- Blood glucose level 21 d ([3]; Table 11, in mmol/L): 19.99 ± 6.69
- Blood glucose level 28 d ([3]; Table 11, in mmol/L): 22.81 ± 7.72
